Measurements reported in ChEMBL document CHEMBL1909046, “DrugMatrix in vitro pharmacology data”.

Legend:
[1] = target: 5-hydroxytryptamine receptor 1B (Rattus norvegicus, UniProt P28564); assay type: cell membranes, Wistar, Cerebral cortex, Membrane; details: for Ki: read-out: Ki; for all read-outs here: in other assays of this panel Not Active means under 50% inhibition at 10 µM
[2] = target: Melanocortin receptor 5 (Homo sapiens, UniProt P33032); assay type: cell membranes, HEK293, Membrane; note: in other assays of this panel Not Active means under 50% inhibition at 10 µM
Chain of Melanocortin receptor 5 (P33032 whole entry): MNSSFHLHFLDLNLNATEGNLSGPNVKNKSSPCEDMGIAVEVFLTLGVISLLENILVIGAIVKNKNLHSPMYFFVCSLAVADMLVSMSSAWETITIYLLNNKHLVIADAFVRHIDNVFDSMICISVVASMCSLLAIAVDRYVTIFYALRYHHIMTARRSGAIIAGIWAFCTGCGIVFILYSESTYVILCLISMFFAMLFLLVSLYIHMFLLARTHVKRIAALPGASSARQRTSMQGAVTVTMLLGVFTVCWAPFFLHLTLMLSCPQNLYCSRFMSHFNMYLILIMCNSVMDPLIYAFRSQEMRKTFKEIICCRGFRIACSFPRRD

[3] = target: T1, Thromboxane-A synthase (Homo sapiens, UniProt P24557); test: biochemical; assay type: tissue-based, Platelet;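 note: enzyme inhibition assay with PGH2 supplied as substrate; in other assays of this panel Not Active means under 50% inhibition at 10 µM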
T1 sequence (P24557 whole entry): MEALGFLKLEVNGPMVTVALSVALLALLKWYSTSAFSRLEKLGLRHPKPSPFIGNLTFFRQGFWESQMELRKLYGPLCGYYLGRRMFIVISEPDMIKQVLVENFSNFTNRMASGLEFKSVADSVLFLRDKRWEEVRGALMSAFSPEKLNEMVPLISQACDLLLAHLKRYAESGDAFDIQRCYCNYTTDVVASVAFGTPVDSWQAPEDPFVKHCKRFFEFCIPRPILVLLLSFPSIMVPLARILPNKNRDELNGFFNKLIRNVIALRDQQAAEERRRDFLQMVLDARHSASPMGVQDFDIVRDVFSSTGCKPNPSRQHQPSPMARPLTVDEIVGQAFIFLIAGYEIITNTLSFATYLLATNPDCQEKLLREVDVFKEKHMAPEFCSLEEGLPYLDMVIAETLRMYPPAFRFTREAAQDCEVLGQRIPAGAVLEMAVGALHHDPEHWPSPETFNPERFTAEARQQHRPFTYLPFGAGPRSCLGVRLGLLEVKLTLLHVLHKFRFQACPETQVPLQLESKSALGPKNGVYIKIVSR

[4] = target: T2, 5-hydroxytryptamine receptor 1A (Rattus norvegicus, UniProt P19327); assay type: cell membranes, CHO-K1, Membrane; details: for Ki: read-out: Ki; for all read-outs here: in other assays of this panel Not Active means under 50% inhibition at 10 µM
T2 sequence (P19327 whole entry): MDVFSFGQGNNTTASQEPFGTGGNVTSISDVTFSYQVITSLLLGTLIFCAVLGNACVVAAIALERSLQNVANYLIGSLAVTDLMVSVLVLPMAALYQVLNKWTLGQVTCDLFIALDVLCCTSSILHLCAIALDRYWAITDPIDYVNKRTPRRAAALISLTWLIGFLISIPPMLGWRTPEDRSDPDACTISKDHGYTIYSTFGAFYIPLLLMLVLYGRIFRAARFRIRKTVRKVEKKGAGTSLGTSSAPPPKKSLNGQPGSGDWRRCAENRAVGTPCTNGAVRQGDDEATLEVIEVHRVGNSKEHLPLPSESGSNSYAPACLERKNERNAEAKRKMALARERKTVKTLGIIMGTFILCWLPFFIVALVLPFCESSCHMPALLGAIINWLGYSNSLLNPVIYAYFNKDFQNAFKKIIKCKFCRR

[5] = target: Aldo-keto reductase family 1 member B1 (Rattus norvegicus, UniProt P07943); test: biochemical; assay type: tissue-based, Lens of camera-type eye
[6] = DRUGMATRIX: ATPase, Na+/K+ enzyme inhibition (substrate: ATP); assay type: tissue-based, Sus scrofa, Heart; details: Not Active = under 50% inhibition at 10 µM

Chain of 5-hydroxytryptamine receptor 1B (P28564 whole entry): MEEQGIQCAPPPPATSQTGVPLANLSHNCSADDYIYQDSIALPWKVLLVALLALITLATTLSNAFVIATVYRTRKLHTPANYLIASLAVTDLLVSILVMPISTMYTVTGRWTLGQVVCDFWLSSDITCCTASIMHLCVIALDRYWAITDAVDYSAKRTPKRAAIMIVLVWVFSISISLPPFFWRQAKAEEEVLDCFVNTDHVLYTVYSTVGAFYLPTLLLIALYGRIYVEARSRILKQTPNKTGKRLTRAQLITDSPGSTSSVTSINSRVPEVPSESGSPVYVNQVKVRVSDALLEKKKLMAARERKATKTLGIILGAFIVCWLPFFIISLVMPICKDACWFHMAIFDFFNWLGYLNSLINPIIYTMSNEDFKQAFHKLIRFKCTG

Structure (SMILES) | IC50 [1] | IC50 ([2]; hek293) | IC50 ([3]; platelet) | IC50 ([4]; cho-k1) | IC50 [5] | IC50 [6] | Ki [6] | IC50 ([4]; read-out: IC50) | Ki [4] | IC50 ([5]; read-out: IC50) | IC50 ([1]; read-out: IC50) | Ki [1] | IC50 ([2]; read-out: IC50) | Ki ([2]; read-out: Ki) | IC50 ([3]; read-out: IC50)
COc1cc(N)nc2[nH]c(-c3ccc(F)cc3)c(-c3ccncc3)c12 | Not Active | Not Active | Not Active | Not Active | Not Active | Not Active | Not Active |  |  |  |  |  |  |  | 
CNS(=O)(=O)Cc1ccc2[nH]cc(CCN(C)C)c2c1 |  | Not Active | Not Active |  | Not Active | Not Active | Not Active | 804 nM | 459 nM |  |  |  |  |  | 
CCCc1nn(C)c2c(=O)[nH]c(-c3cc(S(=O)(=O)N4CCN(C)CC4)ccc3OCC)nc12 | Not Active | Not Active | Not Active | Not Active | Not Active | Not Active | Not Active |  |  |  |  |  |  |  | 
COc1ccc(/C=C/C(=O)Nc2ccccc2C(=O)O)cc1OC | Not Active | Not Active | Not Active | Not Active | Not Active | Not Active | Not Active |  |  |  |  |  |  |  | 
CCOC(N)=O | Not Active | Not Active | Not Active | Not Active | Not Active | Not Active | Not Active |  |  |  |  |  |  |  | 
CC(=O)Nc1nnc(S(N)(=O)=O)s1 [ACETAZOLAMIDE] | Not Active | Not Active | Not Active | Not Active | Not Active |  |  |  |  |  |  |  |  |  | 
O=c1[nH]c2ccccc2n1CCCN1CCC(n2c(=O)[nH]c3cc(Cl)ccc32)CC1 [DOMPERIDONE] | Not Active | Not Active | Not Active | Not Active | Not Active |  |  |  |  |  |  |  |  |  | 
CC1=C(CC(=O)O)c2cc(F)ccc2/C1=C\c1ccc(S(C)(=O)=O)cc1 [EXISULIND] | Not Active | Not Active | Not Active | Not Active |  | Not Active | Not Active |  |  | 269 nM |  |  |  |  | 
CC(C)OC(=O)C(C)(C)Oc1ccc(C(=O)c2ccc(Cl)cc2)cc1 [FENOFIBRATE] | Not Active | Not Active | Not Active | Not Active | Not Active |  |  |  |  |  |  |  |  |  | 
OCCN1CCN(CCCN2c3ccccc3Sc3ccc(C(F)(F)F)cc32)CC1 [FLUPHENAZINE] |  |  | Not Active |  | Not Active |  |  | 1640 nM | 939 nM |  | 1910 nM | 869 nM | 9520 nM | 8930 nM | 
CN1C2CCCC1CC(NC(=O)c1nn(C)c3ccccc13)C2 (centres undefined) [GRANISETRON] | Not Active | Not Active | Not Active | Not Active | Not Active |  |  |  |  |  |  |  |  |  | 
Nc1nc2c(c(=O)[nH]1)N(C=O)C(CNc1ccc(C(=O)N[C@@H](CCC(=O)O)C(=O)O)cc1)CN2 (some centres undefined) [LEUCOVORIN] | Not Active | Not Active | Not Active | Not Active | Not Active | Not Active | Not Active |  |  |  |  |  |  |  | 
C[C@@H](O)[C@H]1C(=O)N2C(C(=O)O)=C(S[C@@H]3CN[C@H](C(=O)N(C)C)C3)[C@H](C)[C@H]12 [MEROPENEM] | Not Active | Not Active | Not Active | Not Active | Not Active | Not Active | Not Active |  |  |  |  |  |  |  | 
CC[C@@H](CO)NC(=O)[C@@H]1C=C2c3cccc4c3c(cn4C)C[C@H]2N(C)C1 [METHYSERGIDE] |  | Not Active | Not Active |  | Not Active |  |  | 54 nM | 31 nM |  | 177 nM | 108 nM |  |  | 
CCN(CC)CC#CCOC(=O)C(O)(c1ccccc1)C1CCCCC1 (centres undefined) [OXYBUTYNIN] | Not Active | Not Active | Not Active | Not Active | Not Active |  |  |  |  |  |  |  |  |  | 
O=P(O)(O)C(O)(Cc1cccnc1)P(=O)(O)O [RISEDRONIC ACID] | Not Active | Not Active | Not Active | Not Active | Not Active | Not Active | Not Active |  |  |  |  |  |  |  | 

Structure (SMILES) | IC50 [1] | IC50 ([2]; hek293) | IC50 ([3]; platelet) | IC50 ([4]; cho-k1) | IC50 [5] | IC50 [6] | Ki [6] | IC50 ([4]; read-out: IC50) | Ki [4] | IC50 ([5]; read-out: IC50) | IC50 ([1]; read-out: IC50) | Ki [1] | IC50 ([2]; read-out: IC50) | Ki ([2]; read-out: Ki) | IC50 ([3]; read-out: IC50)
CN(CCOc1ccc(CC2SC(=O)NC2=O)cc1)c1ccccn1 (centres undefined) [ROSIGLITAZONE] | Not Active | Not Active |  | Not Active | Not Active | Not Active | Not Active |  |  |  |  |  |  |  | 3560 nM
C=C(C)[C@H]1Cc2c(ccc3c2O[C@@H]2COc4cc(OC)c(OC)cc4[C@@H]2C3=O)O1 [ROTENONE] | Not Active | Not Active | Not Active | Not Active | Not Active | Not Active | Not Active |  |  |  |  |  |  |  | 
C#CCN(C)[C@H](C)Cc1ccccc1 [SELEGILINE] | Not Active | Not Active | Not Active | Not Active | Not Active | Not Active | Not Active |  |  |  |  |  |  |  | 
CO[C@H]1C[C@@H]2CC[C@@H](C)[C@@](O)(O2)C(=O)C(=O)N2CCCC[C@H]2C(=O)O[C@H]([C@H](C)C[C@@H]2CC[C@@H](O)[C@H](OC)C2)CC(=O)[C@H](C)/C=C(\C)[C@@H](O)[C@@H](OC)C(=O)[C@H](C)C[C@H](C)/C=C/C=C/C=C/1C [SIROLIMUS] | Not Active | Not Active | Not Active | Not Active | Not Active | Not Active | Not Active |  |  |  |  |  |  |  | 
CN[C@@H]1[C@H](O)[C@H](NC)[C@H]2O[C@@]3(O)C(=O)C[C@@H](C)O[C@H]3O[C@@H]2[C@H]1O [SPECTINOMYCIN] | Not Active | Not Active | Not Active | Not Active | Not Active | Not Active | Not Active |  |  |  |  |  |  |  | 
Nc1ccc(S(=O)(=O)Nc2ncccn2)cc1 [SULFADIAZINE] | Not Active | Not Active | Not Active | Not Active | Not Active | Not Active | Not Active |  |  |  |  |  |  |  | 
COc1ncnc(NS(=O)(=O)c2ccc(N)cc2)c1OC [SULFADOXINE] | Not Active | Not Active | Not Active | Not Active | Not Active | Not Active | Not Active |  |  |  |  |  |  |  | 
Nc1ccc(S(=O)(=O)Nc2nccs2)cc1 [SULFATHIAZOLE] | Not Active | Not Active | Not Active | Not Active | Not Active | Not Active | Not Active |  |  |  |  |  |  |  | 
C[C@]12CC[C@H]3[C@@H](CCC4=CC(=O)CC[C@@]43C)[C@@H]1CC[C@@H]2O [TESTOSTERONE] | Not Active | Not Active | Not Active | Not Active | Not Active | Not Active | Not Active |  |  |  |  |  |  |  | 
CC(C)(C)NC[C@H](O)COc1nsnc1N1CCOCC1 [TIMOLOL] | Not Active | Not Active | Not Active |  | Not Active | Not Active | Not Active | 2710 nM | 1550 nM |  |  |  |  |  | 
CCS(=O)(=O)CCn1c([N+](=O)[O-])cnc1C [TINIDAZOLE] | Not Active | Not Active | Not Active | Not Active | Not Active | Not Active | Not Active |  |  |  |  |  |  |  | 
C[C@@H]1C[C@H]2[C@@H]3CCC4=CC(=O)C=C[C@]4(C)C3=CC[C@]2(C)[C@H]1C(=O)CN1CCN(c2cc(N3CCCC3)nc(N3CCCC3)n2)CC1 [TIRILAZAD] | Not Active | Not Active | Not Active | Not Active | Not Active | Not Active | Not Active |  |  |  |  |  |  |  | 
NC[C@H]1O[C@H](O[C@H]2[C@H](O)[C@@H](O[C@H]3O[C@H](CO)[C@@H](O)[C@H](N)[C@H]3O)[C@H](N)C[C@@H]2N)[C@H](N)C[C@@H]1O [TOBRAMYCIN] | Not Active | Not Active | Not Active | Not Active | Not Active | Not Active | Not Active |  |  |  |  |  |  |  | 
O=c1n(CCCN2CCN(c3cccc(Cl)c3)CC2)nc2ccccn12 [TRAZODONE] |  | Not Active | Not Active |  | Not Active |  |  |  |  |  | 1360 nM | 830 nM |  |  | 
O=C(O)C(Cl)(Cl)Cl [TRICHLOROACETIC ACID] | Not Active | Not Active | Not Active | Not Active | Not Active | Not Active | Not Active |  |  |  |  |  |  |  | 
COc1ccc(CN2CCNCC2)c(OC)c1OC [TRIMETAZIDINE] | Not Active | Not Active | Not Active | Not Active | Not Active | Not Active | Not Active |  |  |  |  |  |  |  | 
